Values joined by “and” are separate entries in the source; they are usually repeats but may differ in a detail not shown here. Equal values may be shown once.
Columns and labels:
[1] = cited from earlier work
[2] = tested on: patients with panic disorder; assay: Clinical Global Impression Scale, improvement subscale (CGI-I); format: in vivo, human
Procedure: (§1) This investigator-initiated study was performed under a prospective clinical trial protocol approved by the Institute of Mental Health and Addictology, which is accredited by the Ministry of Health of the Russian Federation to conduct clinical trials (#57689). Study conduct was in compliance with all ethical standards and good clinical practice. Ninety outpatients with a diagnosis of “panic disorder» (F41.0) according to ICD-10 were enrolled through the Institute of Mental Health and Addictology. Five patients dropped out of the study due to minor side effects, predominantly lightheadedness and headaches, and 4 patients dropped out of the study for unspecified reasons. As the intention to treat analysis was not utilized due to the open label design of the study, 81 patients with PD (49 women and 32 men), mean age was 35.2 years (range […]) were studied. Patients were randomized into 2 groups: with “pure” PD (group 1) and “comorbid” PD, when it was co-diagnosed with other mental illnesses (group 2). All patients with isolated PD (Group 1, n=42) received monotherapy with xenon at the aforementioned schedule, while the majority of patients (94.9%) with PD and comorbid conditions, which were predominantly depression (group 2, n=39), in addition to xenon administration continued treatment for comorbid psychiatric disorders, which mainly consisted of antidepressants (SSRIs and SNRIs). In these patients, the reason for xenon treatment was the increase in the frequency and severity of panic attacks despite ongoing treatment with stable pharmacotherapy of at least 3 to 6 months' duration.
(§2) Administration of xenon was performed through inhalation of xenon-oxygen mixtures that were escalated from 15%/85% to 30%/70% with titration increments of 5% per session. Each patient in the study underwent between 6 and 7 treatments with xenon-oxygen mixture. The first three sessions were carried out daily and from session 4 onward—every other day. The selected dosing regime and the composition of the gas mixtures were based on the historical evidence of safety of subanesthetic use of xenon in imaging.
(§3) Medical grade xenon (“medksenon»®, 99.9999%, manufacturer: Atommedcenter, Moscow, Russia) and medical grade oxygen in separate containers were admixed. Mixing and administration of gases in preset concentration and volume was accomplished with the use of the medical device MAGi-AMTS1, which enables the operator to adjust the concentration of xenon in the gas mixture, and which contains the electronic flow meter with a software module that allows for such adjustments. Administration of xenon-oxygen mixture to the patient was carried out via a face mask. Patients were asked to slowly inhale, holding breath for 5 to 10 seconds; exhale into the loop and after 35-40 seconds exhale outside the contour and breath in the new portion of gas mixture. Xenon inhalation lasted from 2.5 to 4 minutes, and the xenon consumption was capped at 3.0 liters per procedure. The patients were assessed subjectively by the provider, while the vital signs (pulse, blood pressure, oxygen saturation) were continuously monitored.
(§4) Patients were evaluated after each xenon inhalation and at 30 and 180 days after completion of treatment. To this end, we employed clinical psychopathological and clinical catamnestic methods, and psychometric scales that are widely used internationally to assess the treatment of mental disorders. Scale Assessment, Zung Self-Rating Anxiety Scale (SAS) was performed prior to starting therapy (V1), and at 1 and 6 months after treatment. According to this scale, SAS index of less than 45 points corresponds to the normal value, 45-59—to mild-to-moderate degree of anxiety, 60-74—to high degree of anxiety, more than 75—to an extremely high-level of anxiety. […]

[3] = tested on: patients with panic disorder; assay: Frequency of major and minor panic attacks; format: in vivo, human; conditions: for The frequency of major panic attacks 6 months after treatment, Mean / The frequency of major panic attacks 6 months after treatment, Median / Changes Minor Panic Attacs_V6_V1, Mean / Changes Minor Panic Attacs_V6_V1, Median / Changes_Major Panic Attacs_V6_V1, Mean / Changes_Major Panic Attacs_V6_V1, Median: per month; for Changes Minor Panic Attacs_V6_V1, Mean / Changes Minor Panic Attacs_V6_V1, Median / Changes_Major Panic Attacs_V6_V1, Mean / Changes_Major Panic Attacs_V6_V1, Median: vs before treatment
Procedure: as §1, §2, §3, §4

## [Xe] [xenon]
[1]; during inhalational anesthesia
  time at which end-expiratory xenon concentration reached a plateau: 7 min
  time to successful loading of xenon in the brain: approximately 15 minutes
[1]; inhalation
  half-time for equilibration between xenon concentration in arterial blood and at the site of action: 1.49 ± 0.04 min
[2]; Total (n = 81)
  CGI-I, V2: Marked deterioration, share of patients: 1.2%
  CGI-I, V2: Marked improvement, share of patients: 12.3%
  CGI-I, V2: Minimal deterioration, share of patients: 1.2%
  CGI-I, V2: Minimal improvement, share of patients: 54.3%
  CGI-I, V2: No changes, share of patients: 30.9%
  CGI-I, V3: Marked improvement, share of patients: 25.9%
  CGI-I, V3: Minimal improvement, share of patients: 61.7%
  CGI-I, V3: No changes, share of patients: 12.3%
  CGI-I, V4: Marked improvement, share of patients: 54.3%
  CGI-I, V4: Minimal improvement, share of patients: 40.7%
  CGI-I, V4: No changes, share of patients: 4.9%
  CGI-I, V5: Marked improvement, share of patients: 79.0%
  CGI-I, V5: Minimal improvement, share of patients: 18.5%
  CGI-I, V5: Very marked improvement, share of patients: 2.5%
  CGI-I, V6: Marked improvement, share of patients: 66.7%
  CGI-I, V6: Very marked improvement, share of patients: 33.3%
[2]; «Comorbid PD» (n = 39)
  CGI-I, V2: Marked deterioration, share of patients: .0%
  CGI-I, V2: Marked improvement, share of patients: 12.8%
  CGI-I, V2: Minimal deterioration, share of patients: .0%
  CGI-I, V2: Minimal improvement, share of patients: 61.5%
  CGI-I, V2: No changes, share of patients: 25.6%
  CGI-I, V3: Minimal improvement, share of patients: 69.2%
  CGI-I, V3: No changes, share of patients: 20.5%
  CGI-I, V4: Marked improvement, share of patients: 25.6%
  CGI-I, V4: Minimal improvement, share of patients: 64.1%
  CGI-I, V4: No changes, share of patients: 10.3%
  CGI-I, V5: Marked improvement, share of patients: 61.5%
  CGI-I, V5: Minimal improvement, share of patients: 38.5%
  CGI-I, V5: Very marked improvement, share of patients: .0%
  CGI-I, V6: Marked improvement, share of patients: 87.2%
[2]; «Comorbid PD» (n = 39), after 6 treatments
  CGI-I, V6: Very marked improvement, share of patients: 12.8%
[2]; «Comorbid PD» (n = 39), after the third treatment
  CGI-I, V3: Marked improvement, share of patients: 10.3%
[2]; «Pure PD» (n = 42)
  CGI-I, V2: Marked deterioration, share of patients: 2.4%
  CGI-I, V2: Marked improvement, share of patients: 11.9%
  CGI-I, V2: Minimal deterioration, share of patients: 2.4%
  CGI-I, V2: Minimal improvement, share of patients: 47.6%
  CGI-I, V2: No changes, share of patients: 35.7%
  CGI-I, V3: Minimal improvement, share of patients: 54.8%
  CGI-I, V3: No changes, share of patients: 4.8%
  CGI-I, V4: Marked improvement, share of patients: 81.0%
  CGI-I, V4: Minimal improvement, share of patients: 19.0%
  CGI-I, V4: No changes, share of patients: .0%
  CGI-I, V5: Marked improvement, share of patients: 95.2%
  CGI-I, V5: Minimal improvement, share of patients: .0%
  CGI-I, V5: Very marked improvement, share of patients: 4.8%
  CGI-I, V6: Marked improvement, share of patients: 47.6%
[2]; «Pure PD» (n = 42), after 6 treatments
  CGI-I, V6: Very marked improvement, share of patients: 52.4%
[2]; «Pure PD» (n = 42), after the third treatment
  CGI-I, V3: Marked improvement, share of patients: 40.5%
[3]; Total (n = 81)
  The frequency of minor panic attacks 6 months after treatment, Mean: .6 times/month
  The frequency of minor panic attacks 6 months after treatment, Median: .0 times/month
  The frequency of major panic attacks 6 months after treatment, Mean: .0
  The frequency of major panic attacks 6 months after treatment, Median: .0
  Changes Minor Panic Attacs_V6_V1, Mean: −42.7
  Changes Minor Panic Attacs_V6_V1, Median: −55.0
  Changes_Major Panic Attacs_V6_V1, Mean: −9.6
  Changes_Major Panic Attacs_V6_V1, Median: −7.0
[3]; both groups
  “major” panic attacks 6 months after treatment: absent
[3]; conclusion from HADS_T, CGI-I, CGI-S
  panic attacks after the 6th treatment: complete cessation of panic attacks
[3]; «Comorbid PD» (n = 39)
  The frequency of minor panic attacks 6 months after treatment, Mean: 1 times/month and 1.0 times/month
  The frequency of minor panic attacks 6 months after treatment, Median: .0 times/month
  The frequency of major panic attacks 6 months after treatment, Mean: .0
  The frequency of major panic attacks 6 months after treatment, Median: .0
  Changes Minor Panic Attacs_V6_V1, Mean: −40.7
  Changes Minor Panic Attacs_V6_V1, Median: −40.0
  Changes_Major Panic Attacs_V6_V1, Mean: −11.7
  Changes_Major Panic Attacs_V6_V1, Median: −12.0
[3]; «Pure PD» (n = 42)
  The frequency of minor panic attacks 6 months after treatment, Median: .0 times/month
  The frequency of major panic attacks 6 months after treatment, Mean: .0
  The frequency of major panic attacks 6 months after treatment, Median: .0
  Changes Minor Panic Attacs_V6_V1, Mean: −44.5
  Changes Minor Panic Attacs_V6_V1, Median: −55.0
  Changes_Major Panic Attacs_V6_V1, Mean: −7.7
  Changes_Major Panic Attacs_V6_V1, Median: −3.0
